PubChem BioAssay (NCI)
Values joined by “and” are separate entries in the source; they are usually repeats but may differ in a detail not shown here. Identical values can stand only once.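 Five concentrations, 48 hours, 96-well plates. GI50 marks 50% less growth. TGI denotes the concentration required for complete inhibition of growth.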

How the values were obtained:
Test in all cases: inhibition of tumour cell growth, NCI panel, 48 h
U251 CNS = system: U251 CNS
UACC-62 melanoma = system: UACC-62 melanoma
T-47D breast = system: T-47D breast
CAKI-1 renal = system: CAKI-1 renal
HCT-15 colon = system: HCT-15 colon
OVCAR-4 ovarian = system: OVCAR-4 ovarian
RXF 393 renal = system: RXF 393 renal
EKVX NSCLC = system: EKVX NSCLC
SN12C renal = system: SN12C renal
HS 578T breast = system: HS 578T breast

Compound | TGI (U251 CNS) | TGI (UACC-62 melanoma) [µM] | GI50 (T-47D breast) | TGI (T-47D breast) | TGI (CAKI-1 renal) | TGI (HCT-15 colon) | GI50 (OVCAR-4 ovarian) [µM] | TGI (OVCAR-4 ovarian) [µM] | GI50 (RXF 393 renal) | TGI (RXF 393 renal) | GI50 (EKVX NSCLC) | TGI (EKVX NSCLC) | TGI (SN12C renal) | GI50 (U251 CNS) [µM] | GI50 (UACC-62 melanoma) [µM] | GI50 (CAKI-1 renal) [µM] | GI50 (HCT-15 colon) [µM] | GI50 (HS 578T breast) [µM] | TGI (HS 578T breast) [µM] | GI50 (SN12C renal) [µM]
COc1ccc2c(c1)c[n+](C)c1c3cc(OC)c(OC)cc3ccc21 | 2.3 µM and 5.45 µM | 23.9 | 1.95 µM and 5.02 µM | 4.93 µM and 26.4 µM | 32.2 µM and 44 µM | 30 µM and > 74.1 µM | 5.48 | 20.4 | 1.5 µM and 5.8 µM | 2.98 µM and 13.6 µM | 1.5 µM and 11.3 µM | 4.52 µM and 42.3 µM | 3.53 µM and 8.51 µM |  |  |  |  |  |  | 
CCOC(=O)C1SC(=Nc2ccccc2)N=C1C (configuration not stated) | > 100 µM |  |  |  |  | > 100 µM |  | > 100 |  | > 100 µM |  | > 100 µM | > 100 µM |  |  |  |  |  |  | 
Cn1c(=O)c(Oc2ccc(F)cc2)cc2cnc(NC3CCOCC3)nc21 | > 25 µM | > 25 | 22.2 µM | > 25 µM | > 25 µM | > 25 µM | > 25 | > 25 | 24.7 µM | > 25 µM |  |  | > 25 µM | > 25 | > 25 | > 25 | > 25 | > 25 | > 25 | > 25
O=[N+]([O-])c1ccc(-c2cnc3ccccn23)cc1 | > 100 µM | > 100 |  |  | > 100 µM | > 100 µM |  | > 100 |  | > 100 µM |  | > 100 µM | > 100 µM |  |  |  |  |  |  | 
O=C1CCC(=O)c2c1c(O)c1ccncc1c2O | 64.3 µM | 20.1 |  |  | 42.4 µM | 26.3 µM |  | 25.6 |  | 35.6 µM |  | 47.6 µM | 31.6 µM |  |  |  |  |  |  | 
O=C(Nc1cc(C(F)(F)F)ccc1Cl)c1cccc(NC2=C(Cl)C(=O)N(Cc3ccccc3)C2=O)c1 | > 100 µM | > 100 | 81.1 µM | > 100 µM | > 100 µM | > 100 µM | > 100 | > 100 |  |  | 53 µM | > 100 µM | > 100 µM | 11.1 | 26.5 | 89.3 | 23.5 | 53.7 | > 100 | 32.1
O=C1c2cc3c(cc2-c2c1c1cc(Cl)c(Cl)cc1c(=O)n2C[C@H](O)CO)OCO3 | 0.0368 µM | 0.0126 | < 0.01 µM | 0.0334 µM |  | 14.3 µM |  |  | < 0.01 µM | 0.0378 µM | 0.0243 µM | 19 µM | 0.122 µM | < 0.01 | < 0.01 |  | 0.0127 | 0.291 | 32.9 | < 0.01
C#Cc1nc(Nc2cc(C)[nH]n2)c2ccccc2n1 | 0.885 µM | 0.332 | 0.39 µM | 2.11 µM | 2.02 µM | 0.474 µM | 0.347 |  | 0.136 µM | 0.301 µM |  |  | 0.726 µM | 0.256 | 0.165 | 0.442 | 0.205 | 0.318 | > 46.2 | 0.236
CC1(Br)Cc2ccccc2C1=O (configuration not stated) | 18.7 µM | 3.63 | 4.18 µM | 21.2 µM | 3.86 µM |  | 2.14 | 8.43 |  |  |  | 11.2 µM | 14.8 µM |  |  | 1.75 |  |  | 38.6 | 4.55
C[Si](C)(C)/C(I)=C/CO | 36.7 µM | 52.9 |  |  |  | 72.1 µM |  | > 100 |  |  |  | 71.7 µM | 64.7 µM |  |  |  |  |  |  | 
Cc1ccc(NC(=O)CCc2nnc(N)o2)cc1 | > 100 µM | > 100 |  |  | > 100 µM | > 100 µM |  | > 100 |  | > 100 µM |  | > 100 µM | > 100 µM |  |  |  |  |  |  | 
COc1ccc(-c2nnc(N3CCN(C(=O)CN4CCN(c5ccccc5)CC4)CC3)nc2-c2ccc(OC)cc2)cc1 | > 100 µM | 40 |  |  | > 100 µM | > 100 µM | 6.36 | > 100 | 3.36 µM | 22.4 µM | 4.91 µM | > 100 µM | > 100 µM | 4.14 | 6.48 | 6.23 | 3.13 | 5.15 | 71.5 | 2.85
CCOC(=O)c1ccc(N=Nc2cc(C(=O)OCC)ccc2O)cc1 | > 100 µM | > 100 |  |  | > 100 µM | > 100 µM |  |  |  | > 100 µM |  | 41.8 µM | > 100 µM |  |  |  |  |  |  | 
CSc1ccccc1C#C/C=C\C#Cc1ccccc1N | 55.3 µM | 34.9 | 17.6 µM | 38.6 µM | 1.68 µM | 32.5 µM | 29.9 | 71 | 24.5 µM | > 100 µM | 16.9 µM | 57.4 µM | 27.7 µM | 10.3 | 7.83 | 0.32 | 6.65 |  |  | 8.93
C=CCC1(CN(C)C)CC/C(=C\c2ccc(Cl)cc2)C1=O (configuration not stated) | > 100 µM | > 100 |  |  | > 100 µM | 58.4 µM |  | > 94.5 |  | > 72.9 µM |  | > 100 µM | > 100 µM |  |  |  |  |  |  | 
[N-]=[N+]=N/C1=C/CCCCC(=O)C1 |  | > 100 |  |  | > 100 µM | > 100 µM |  | > 100 |  | > 100 µM |  | > 100 µM | > 100 µM |  |  |  |  |  |  | 
COC(=O)c1s/c(=N\C(=S)N(C)C)n(-c2ccc(Cl)cc2)c1C(=O)OC | > 100 µM | > 10 |  |  | > 100 µM | > 100 µM |  | > 100 |  | > 100 µM |  | > 100 µM | > 100 µM |  |  |  |  |  |  | 
C[Si](C)(C)/C(Br)=C\CCN1C(=O)CCC1=O | > 100 µM | > 100 |  |  | > 100 µM | > 100 µM |  | > 100 |  | > 100 µM |  | > 100 µM | > 100 µM |  |  |  |  |  |  | 
CCN(Cc1ccc(F)cc1)c1ccc(CO)c(Br)c1 | 13 µM | 0.342 | 0.0546 µM | 0.296 µM | 15.1 µM | > 52.6 µM | 0.152 | 2.68 | 1.4 µM | 16.1 µM |  |  | 23.9 µM | 0.171 | 0.0522 | 1.02 | 5.8 | 13.5 | 46.1 | 8.71
